{"source": "patent US9040586B2", "about": "“Veterinary compositions for controlling ecto- and endoparasites in bovines, use of these compositions, use of IGR substances associated with microminerals, method for controlling ecto- and endoparasites in bovines and kit” (Champion Farmoquimico Ltda., priority 2012, dated 2015)", "key": {"[1]": {"details": "cited from earlier work"}, "[2]": {"details": "cited from earlier work", "remark": "listed apart in the source"}, "[3]": {"tested_on": "Rhipicephalus (Boophilus) microplus", "test": "Rhipicephalus (Boophilus) microplus challenge: engorged female weight and oviposition", "type": "in vivo, calves", "details": "treated group", "experimental": "For this challenge, 5 animals were randomly selected from each group. Animals from both control and treated groups were transferred to individual tick-free pens with wooden tiled floor, where they remained for 21 days until the engorged females dropped to the ground. Those were collected on a daily basis for a 5 day period, and put on plastic vessels, formerly washed and dried with paper towels. After the engorged ticks were weighed, they're put on Petri dishes and then into a B.O.D. incubator for two weeks, under 27° C. and relative humidity over 85% (SANTOS e FURLONG, 2002; PEREIRA, 2006).\nAfter this period, oviposition in each of the Petri dishes were weighed and transferred to assay tubes (15 cm high and with a 15 mm diameter each) sealed with cotton. The assays tubes were labeled and then returned to the B.O.D. incubator, under the same conditions described above, up to the larval emergence."}, "[4]": {"tested_on": "Haematobia irritans", "test": "Haematobia irritans field test: horn fly counts on calves", "type": "in vivo", "experimental": "The experiment was conducted at Fazenda Santo Amaro in the city of Ouro Verde de Goiás—GO, Brazil, between October 2011 and January 2012, on 20 calves aged 12-16 months and weigh between 147 and 305 kg, divided in control group (T0) and treated group (T1).\nThe animals were weighed, identified and kept on Brachiaha brizantha pasture with “ad libitum” access to drinking water troughs. The control group received “ad libitum” minerals (T0), while the treated group received a micromineral mixture containing iron, copper, manganese, iodine, cobalt, zinc, selenium and chromium added to rock salt. Diflubenzuron was added to this mixture in the following proportion: 1.1 g per kilo of the mixture. A macromineral source was offered separately in the trough.\nIn order to determine the number of horn flies, ticks and helminth eggs per gram of feces, as well as periodic weighing, the animals were handled in a 30 day basis.\nThe animals were lead to the corral for the initial counting of the total number of horn flies in the cervical and lumbar regions.\nThe field experiment was conducted during the summer, a critical period for horn fly infestations in Brazil (BIANCHIN et al., 2004). […]\nAt the end of the experimental period, the animals were lead to the containment chute to have the flies counted. […]"}, "[5]": {"tested_on": "Haematobia irritans", "test": "Haematobia irritans in vitro test: eggs developed in feces of treated cattle", "type": "in vivo", "details": "20 days", "experimental": "In order to evaluate the efficacy of Diflubenzuron over H. irritans larval development, without possible interference of climate changes, an experiment was conducted under controlled conditions.\nAdult horn flies over untreated animals were captured with a net and then shipped to the Tropical Pathology and Public Health Institute (IPTSP/GO) in order to obtain the eggs. The flies were put on cages lined with moist coffee filter as a substrate for oviposition. The filter was inspected every three hours for eggs. Those were subject to analysis regarding viability and transferred to a vessel containing feces from 4 animals among the control and diflubenzuron treated groups, randomly chosen, each containing 50 viable eggs. These containers with feces were maintained in a B.O.D. incubator with constant temperature (25° C.) and under photoperiod of 12 hours, for a 20 day period, at the end of which was noted an end to the hatching of eggs.\nBoth groups—T0 e T1—, were statistically compared by the Mann-Whitney test, with P adjusted in 0.05 due to the impossibility of testing distribution normality, given the low number of repetitions (n=4)."}, "[6]": {"tested_on": "gastrointestinal nematodes of cattle", "details": "19 of the 23 farms; cited from earlier work"}}, "data": [{"compound": "Cc1ccc(N=c2sccn2C)c(C)c1", "note": "[Cymiazoles]", "values": [{"measurement": "withdrawal prior to slaughter", "setting": "[1]; beef cattle", "result": 3, "unit": "days"}, {"measurement": "Withdrawal period Milk", "setting": "[1]; milk / lactating cows, in words, table cells wrap over 4 rows: 'Do not apply on lactating cows'", "result": "no withdrawn period needed"}]}, {"compound": "CC1(C)C(C=C(Cl)Cl)C1C(=O)OC(C#N)c1cccc(Oc2ccccc2)c1", "note": "(stereo not drawn) [Cypermethrin]", "values": [{"measurement": "Oral LD50", "setting": "[2]", "result": 250, "unit": "mg/kg"}]}, {"compound": "CC1(C)[C@H](C(=O)O[C@H](C#N)c2cccc(Oc3ccccc3)c2)[C@@H]1C=C(Br)Br", "note": "[Deltamethrin]", "values": [{"measurement": "Oral LD50", "setting": "[2]", "result": 130, "unit": "mg/kg"}]}, {"compound": "O=C(NC(=O)c1c(F)cccc1F)Nc1ccc(Cl)cc1", "note": "[Diflubenzuron, 1-(4-chloridephenyl)-3-(2,6-difulorobenzoyl)urea]", "values": [{"measurement": "average engorged female ticks' weight", "setting": "[3]; control 278 mg", "result": 153, "unit": "mg"}, {"measurement": "weight of collected engorged ticks", "setting": "[3]; control 260-295 mg", "result": "145 to 165", "unit": "mg"}, {"measurement": "average egg laying of the female", "setting": "[3]; control 2,600", "result": 900, "unit": "eggs"}, {"measurement": "reduction on horn fly numbers on the treated group", "setting": "[4]", "result": "higher than 99%"}, {"measurement": "median lethal dose", "setting": "[2]; in vivo", "result": "4,640 mg/kg"}, {"measurement": "hatching average", "setting": "[5]; 50 viable eggs per container, feces of treated cattle, 25° C., control 43±4.1633", "result": "0.5±0.1"}, {"measurement": "calculated efficiency, based on the control group", "setting": "[5]; in vitro, method of HOLDSWORTH et al., 2006", "result": 98.83, "unit": "%"}]}, {"compound": "N#Cc1nn(-c2c(Cl)cc(C(F)(F)F)cc2Cl)c(N)c1[S+]([O-])C(F)(F)F", "note": "(stereo not drawn) [Fipronil]", "values": [{"measurement": "Oral LD50", "setting": "[2]", "result": 97, "unit": "mg/kg"}]}, {"compound": "Abamectin", "values": [{"measurement": "Oral LD50", "setting": "[2]", "result": 10, "unit": "mg/kg"}]}, {"compound": "Ivermectin", "values": [{"measurement": "reductions in FEC", "setting": "[6]", "result": "< 50", "unit": "%"}, {"measurement": "Oral LD50", "setting": "[2]", "result": 52, "unit": "mg/kg"}]}]}
